pIC50: −log10 of the molar value.
Assays:
Recombinant HDAC1 = Recombinant HDAC1 (Homo sapiens (Human), UniProt Q13547); test: HDAC1 inhibition, Fluor de Lys fluorescent enzyme assay; format: biochemical; conditions: 3 hours pre-incubation at room temp; 6 nM enzyme; 16 μM Fluor de Lys substrate; duplicate
How it was run: (§1)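 Enzyme (HDAC1 6 nM, HDAC3/NCor2 1.2 nM final) pre-incubated with compound 3 h at ~22 °C in Tris pH 8 buffer with 0.01% BSA. Reaction run 1 h with 16 μM Fluor de Lys substrate and stopped with TSA-containing developer. Fluorescence read at Ex 360/Em 460; IC50 from an occupancy equation with Hill coefficient, in duplicate.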

HDAC3/NCor2 = HDAC3/NCor2 (Homo sapiens (Human), UniProt O15379); test: HDAC3 inhibition, Fluor de Lys fluorescent enzyme assay; format: biochemical; conditions: 3 hours pre-incubation at room temp; 1.2 nM enzyme; 16 μM Fluor de Lys substrate; duplicate
Chain of HDAC3/NCor2 (O15379 whole entry): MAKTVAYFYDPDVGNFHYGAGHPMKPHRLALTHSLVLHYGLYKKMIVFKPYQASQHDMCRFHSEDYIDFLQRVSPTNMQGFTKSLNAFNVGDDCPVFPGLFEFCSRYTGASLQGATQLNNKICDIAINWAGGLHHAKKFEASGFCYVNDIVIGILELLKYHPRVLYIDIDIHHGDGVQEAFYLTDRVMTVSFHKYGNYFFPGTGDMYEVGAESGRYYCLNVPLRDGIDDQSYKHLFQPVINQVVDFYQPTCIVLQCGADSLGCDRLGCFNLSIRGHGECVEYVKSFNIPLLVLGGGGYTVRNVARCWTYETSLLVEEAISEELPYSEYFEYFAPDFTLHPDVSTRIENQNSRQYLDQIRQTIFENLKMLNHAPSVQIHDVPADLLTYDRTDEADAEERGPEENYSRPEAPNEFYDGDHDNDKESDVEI
Chain of HDAC3/NCor2 (Q9Y618 395-489 partner): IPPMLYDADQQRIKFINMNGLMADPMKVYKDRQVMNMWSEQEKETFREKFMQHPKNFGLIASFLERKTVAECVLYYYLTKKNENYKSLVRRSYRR
How it was run: as §1

Chain of Recombinant HDAC1 (Q13547 whole entry): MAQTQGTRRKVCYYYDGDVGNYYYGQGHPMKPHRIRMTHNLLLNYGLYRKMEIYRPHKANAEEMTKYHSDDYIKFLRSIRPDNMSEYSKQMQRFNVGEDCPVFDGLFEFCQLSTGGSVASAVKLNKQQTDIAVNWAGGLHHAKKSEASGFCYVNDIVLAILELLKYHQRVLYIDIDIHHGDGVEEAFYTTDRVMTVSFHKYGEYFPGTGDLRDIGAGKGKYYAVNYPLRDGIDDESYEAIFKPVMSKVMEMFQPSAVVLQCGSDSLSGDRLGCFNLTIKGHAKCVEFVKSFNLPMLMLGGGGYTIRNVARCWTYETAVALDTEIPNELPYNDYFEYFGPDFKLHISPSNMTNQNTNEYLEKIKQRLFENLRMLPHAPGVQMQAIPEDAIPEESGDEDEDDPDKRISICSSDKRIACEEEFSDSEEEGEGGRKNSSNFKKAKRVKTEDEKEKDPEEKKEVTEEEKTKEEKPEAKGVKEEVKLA

| pIC50 (Recombinant HDAC1) | pIC50 (HDAC3/NCor2) | Compound |
| --- | --- | --- |
| > 7.00 | 6.30 to 7.00 | CS(=N)(=O)c1ccc2sc(C(=O)Nc3cc(-c4ccc(F)cc4)ccc3N)cc2n1 (stereo not shown) [Compound 254, N-[2-amino-5-(4-fluorophenyl)phenyl]-5-(methylsulfonimidoyl)thieno[3,2-b]pyridine-2-carboxamide] |
| > 7.00 | < 5.70 | CC(O)c1ccc(-c2ccc(N)c(NC(=O)c3ccc(S(C)(=N)=O)cc3)c2)s1 (stereo not shown) [Compound 255, N-[2-amino-5-[5-(1-hydroxyethyl)-2-thienyl]phenyl]-4-(methylsulfonimidoyl)benzamide] |
| > 7.00 | < 5.70 | N=S(=O)(c1ccc(C(=O)Nc2cc(-c3ccc(F)cc3)ccc2N)cc1)c1ccc(C(F)(F)F)cc1 (stereo not shown) [Compound 256, N-[2-amino-5-(4-fluorophenyl)phenyl]-4-[[4-(trifluoromethyl)phenyl]sulfonimidoyl]benzamide] |
| > 7.00 | 6.30 to 7.00 | N=S(=O)(c1ccc(C(=O)Nc2cc(-c3ccc(F)cc3)ccc2N)cc1)c1ncc[nH]1 (stereo not shown) [Compound 257, N-[2-amino-5-(4-fluorophenyl)phenyl]-4-(1H-imidazol-2-ylsulfonimidoyl)benzamide] |
| > 7.00 | 5.70 to 6.30 | CS(=N)(=O)c1coc2cc(C(=O)Nc3cc(-c4ccc(F)cc4)ccc3N)ccc12 (stereo not shown) [Compound 258, N-[2-amino-5-(4-fluorophenyl)phenyl]-3-(methylsulfonimidoyl)benzofuran-6-carboxamide] |
